{"source": "patent US20220324909A1", "about": "“THERAPEUTIC PEPTIDES” (COHBAR, INC., priority 2019, published 2022)", "key": {"3T3-L1 mouse adipocytes [1]": {"tested_on": "3T3-L1 mouse adipocytes", "test": "Free fatty acid levels in 3T3-L1 mouse adipocytes (Example 12, 10 μM)", "assay_type": "cell-based", "settings": "peptide 10 μM, 20-22 h then 3 h with isoproterenol 1 nM", "method": "The effect of the peptides on fatty acid metabolism can be assessed using an assay of free fatty acid levels in cultured cells such as mouse adipocytes. Peptides were initially prepared as 10 mM stock in DMSO, diluted to 1 mM in H2O, and used at a final concentration of 10 μM (0.1% DMSO). […] Insulin at 100 nM was added to control wells."}, "C2C12 cells [2]": {"tested_on": "C2C12 cells", "test": "Glucose utilization in cultured C2C12 cells and insulin dependence", "assay_type": "cell-based, mouse", "settings": "22 h", "summary_of_the_method": "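Differentiated C2C12 myotubes in low-glucose DMEM were treated 22 h with 10 μM peptide, alone or with 5-20 nM insulin; 1 mM metformin served as control. Medium glucose was measured by absorbance at 570 nm and expressed as percent of untreated cells (no insulin) or insulin-only cells, averaged from 2-3 experiments in triplicate.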"}, "3T3-L1 mouse adipocytes [3]": {"tested_on": "3T3-L1 mouse adipocytes", "test": "Free fatty acid levels in cultured 3T3-L1 mouse adipocytes and insulin dependence (Example 17)", "assay_type": "cell-based", "settings": "isoproterenol 0.1 nM"}, "C2C12 cells [4]": {"tested_on": "C2C12 cells", "test": "Cell proliferation in C2C12 cells (Cyquant DNA dye binding)", "assay_type": "cell-based, mouse", "settings": "peptide 10 μM, 72 hours with readdition every 24 hours, relative to 0.1% DMSO control", "method": "The effect of the peptides on cell proliferation was assessed using a DNA dye binding assay in cultured cells such as mouse myoblast cells. Peptides were initially prepared as 10 mM stock in DMSO, diluted to 1 mM in H2O, and added at a final concentration of 10 μM (0.1% DMSO). Lovastatin was used as a growth arrest control at final concentration of 10 μM. […] C2C12 cells were grown in DMEM supplemented with 20% FBS with 100 IU/ml penicillin and 100 μg/ml streptomycin. […] C2C12 cells were seeded at 800 cells per well on 96-well plates. […] Cell proliferation was determined using Cyquant Direct Nucleic Acid Stain (Thermo Fisher Scientific, Waltham, Mass.) according to the manufacturer's instructions. Fluorescence for each sample well on the plate was measured using a Cytation 3 plate reader at Ex/Em=495/535 nm (BioTek, Winooski, Vt.). Activity was calculated relative to 0.1% DMSO untreated control. The relative standard deviation for the lovastatin control was <27%. The cell proliferation for the lovastatin control was <25% of the value for untreated control."}, "C2C12 cells [5]": {"tested_on": "C2C12 cells", "test": "Cellular ROS levels induced by TBHP in C2C12 cells (DCFDA)", "assay_type": "cell-based, mouse", "settings": "peptide 10 μM 18-20 hours, then TBHP 100 μM 1 hour; relative to TBHP control", "method": "The protective or synergistic effect of the peptides on cellular levels of reactive oxygen species (ROS) induced by oxidative stress can be assessed using an assay of ROS in cultured cells such as mouse myoblasts exposed to a suitable oxidative stress. Peptides were initially prepared as 10 mM stock in DMSO, diluted to 1 mM in H2O, and added at a final concentration of 10 μM (0.1% DMSO). […] TBHP was used at final concentration of 100 μM. Sulforaphane at final concentration of 10 μM was used as a protective control against TBHP induced ROS production. […] C2C12 cells were grown in DMEM supplemented with 20% FBS with 100 IU/ml penicillin and 100 μg/ml streptomycin. […] C2C12 cells were seeded at 7,500 cells per well on 96-well plates. […] After 18-20 hours of incubation the cells were loaded with DCFDA for 45 min. TBHP at 100 μM was then added to the appropriate wells for 1 hour. ROS activity was determined using a DCFDA Cellular ROS Detection Assay kit (Abcam, Cambridge, Mass.) according to the manufacturer's instructions. Fluorescence in each sample well on the plate was measured using a Cytation 3 plate reader at Ex/Em=485/535 nm (BioTek, Winooski, Vt.). Activity was calculated relative to TBHP control. The relative standard deviation of the sulforaphane control was <20%. The ROS level produced by the sulforaphane control in the presence of TBHP was 52% of the TBHP control."}}, "data": [{"smiles": "CSCC[C@H](NC(=O)CNC(=O)[C@H](CCSC)NC(=O)[C@H](CCSC)NC(=O)[C@H](CCCNC(=N)N)NC(=O)[C@H](CCCNC(=N)N)NC(=O)[C@@H](N)CCSC)C(=O)N[C@H](C(=O)N[C@@H](Cc1ccccc1)C(=O)N[C@@H](CCC(N)=O)C(=O)N[C@@H](CS)C(=O)N[C@@H](CC(C)C)C(=O)N[C@@H](CS)C(=O)NCC(=O)N[C@@H](CC(C)C)C(=O)O)C(C)C", "note": "[compound 7]", "values": [{"measurement": "Free Fatty Acid Levels, Percent of Isoproterenol Control Activity", "setting": "3T3-L1 mouse adipocytes [1]", "value": 34.6, "unit": "%"}, {"measurement": "Glucose Utilization, Percent of Control Activity No Insulin", "setting": "C2C12 cells [2]; peptide 10 μM alone, glucose in medium relative to untreated cells", "value": 98.1, "unit": "%"}, {"measurement": "Glucose Utilization, Percent of Control Activity With Insulin", "setting": "C2C12 cells [2]; peptide 10 μM with 5-20 nM insulin, glucose in medium relative to insulin treated cells", "value": 100.7, "unit": "%"}, {"measurement": "Free Fatty Acid Levels, Percent of Isoproterenol Control Activity No Insulin", "setting": "3T3-L1 mouse adipocytes [3]; peptide 10 μM alone, relative to isoproterenol treated cells", "value": 102, "unit": "%"}, {"measurement": "Free Fatty Acid Levels, Percent of Isoproterenol Control Activity With Insulin", "setting": "3T3-L1 mouse adipocytes [3]; peptide 10 μM with 0.25 nM insulin, relative to 0.25 nM insulin treated cells", "value": 71.3, "unit": "%"}, {"measurement": "Cell Proliferation, Percent of Control", "setting": "C2C12 cells [4]", "value": 94.0, "unit": "%"}, {"measurement": "Cellular ROS Levels Induced by TBHP, Percent of Control", "setting": "C2C12 cells [5]", "value": 98.6, "unit": "%"}]}]}
